The values that follow are results of earlier work, collected in patent US20250057962A1, “PROCESSABLE COMPOSITIONS AND USE FOR THE SAME” (Ripple Therapeutics Corporation, priority 2021, published 2025).

For this series the following is noted: given once a day.

Each structure is given as a SMILES string.

For `CC(C)OC(=O)CCC/C=C\C[C@@H]1[C@@H](CC[C@@H](O)CCc2ccccc2)[C@H](O)C[C@@H]1O` [latanoprost], the “mean IOP lowering” value is “about 35%”.
